Data reported in publication PMC9516332 (Frontiers in Oncology, 2022).
Read-outs that look alike come from different tables or passages of the source.

Legend:
134 cancer cell lines = assay: Cell viability assay (ATPlite, 72 hours), IC50 on cancer cell line panel
AP-1060 (ETV6-NTRK3) = assay: Cell viability assay; settings: read-out: IC50 in cell proliferation assay

IC50 (134 cancer cell lines; Homo sapiens, MOLM-13, read-out: IC50 in cell proliferation assay, MOLM-13 cell line (FLT3 ITD)): 1030 nM | IC50 (134 cancer cell lines; Homo sapiens, MOLT-4, read-out: IC50 in cell proliferation assay, MOLT-4 cell line): > 31600 nM | IC50 (134 cancer cell lines; Homo sapiens, MV4-11, read-out: IC50 in cell proliferation assay, MV4-11 cell line (FLT3 ITD)): 511 nM | IC50 (134 cancer cell lines; Homo sapiens, MeWo, read-out: IC50 in cell proliferation assay, MeWo cell line): 117 nM | IC50 (134 cancer cell lines; Homo sapiens, NCCIT, read-out: IC50 in cell proliferation assay, NCC-IT cell line): 12100 nM | IC50 (134 cancer cell lines; Homo sapiens, NCI-H82, read-out: IC50 in cell proliferation assay, cell line NCI-H82): > 31600 nM | IC50 (134 cancer cell lines; Homo sapiens, NCI-H460, read-out: IC50 in cell proliferation assay, NCI-H460 cell line): 120 nM | IC50 (134 cancer cell lines; Homo sapiens, NCI-H661, read-out: IC50 in cell proliferation assay, NCI-H661 cell line): 3310 nM | IC50 (134 cancer cell lines; Homo sapiens, NCI-H716, read-out: IC50 in cell proliferation assay, cell line NCI-H716 (FGFR2-COL14A1)): 27 nM | IC50 (134 cancer cell lines; Homo sapiens, NCI-H1650, read-out: IC50 in cell proliferation assay, NCI-H1650 cell line (EGFR exon19del)): 8560 nM | IC50 (134 cancer cell lines; Homo sapiens, NCI-H1975, read-out: IC50 in cell proliferation assay, NCI-H1975 cell line (EGFR p.L858R + p.T790M)): 201 nM | IC50 (134 cancer cell lines; Homo sapiens, NCI-H2228, read-out: IC50 in cell proliferation assay, NCI-H2228 cell line (EML4-ALK)): 16 nM | IC50 (134 cancer cell lines; Homo sapiens, OVCAR-3, read-out: IC50 in cell proliferation assay, cell line OVCAR-3): > 31600 nM | IC50 (134 cancer cell lines; Homo sapiens, PFSK-1, read-out: IC50 in cell proliferation assay, cell line PFSK-1): > 31600 nM | IC50 (134 cancer cell lines; Homo sapiens, RL95-2, read-out: IC50 in cell proliferation assay, cell line RL95-2 (EGFR p.A289V)): 24 nM | IC50 (134 cancer cell lines; Homo sapiens, RPMI-7951, read-out: IC50 in cell proliferation assay, cell line RPMI-7951 (BRAF p.V600E)): 199 nM | IC50 (134 cancer cell lines; Homo sapiens, RS4-11, read-out: IC50 in cell proliferation assay, cell line RS4;11): > 31600 nM | IC50 (134 cancer cell lines; Homo sapiens, Rec1, read-out: IC50 in cell proliferation assay, cell line REC-1): > 31600 nM | IC50 (134 cancer cell lines; Homo sapiens, SHP77, read-out: IC50 in cell proliferation assay, cell line SHP-77): > 31600 nM | IC50 (134 cancer cell lines; Homo sapiens, SK-BR-3, read-out: IC50 in cell proliferation assay, cell line SK-BR-3 (ERBB2 amplification)): > 31600 nM | IC50 (134 cancer cell lines; Homo sapiens, SK-N-AS, read-out: IC50 in cell proliferation assay, cell line SK-N-AS): 14 nM | IC50 (134 cancer cell lines; Homo sapiens, SK-N-FI, read-out: IC50 in cell proliferation assay, cell line SK-N-FI): 798 nM | IC50 (134 cancer cell lines; Homo sapiens, SK-N-MC, read-out: IC50 in cell proliferation assay, cell line SK-N-MC): > 31600 nM | IC50 (134 cancer cell lines; Homo sapiens, SK-N-SH, read-out: IC50 in cell proliferation assay, cell line SK-N-SH (ALK p.F1174L)): 59 nM | IC50 (134 cancer cell lines; Homo sapiens, SNU-5, read-out: IC50 in cell proliferation assay, cell line SNU-5 (MET amplification)): 1460 nM | IC50 (134 cancer cell lines; Homo sapiens, SNU-16, read-out: IC50 in cell proliferation assay, cell line SNU-16 (FGFR2 amplification)): 9730 nM | IC50 (134 cancer cell lines; Homo sapiens, SNU-C2B, read-out: IC50 in cell proliferation assay, cell line SNU-C2B (EGFR p.R165Q)): 176 nM | IC50 (134 cancer cell lines; Homo sapiens, SU-DHL-1, read-out: IC50 in cell proliferation assay, cell line SU-DHL-1 (NPM1-ALK)): 2840 nM | IC50 (134 cancer cell lines; Homo sapiens, SU-DHL-6, read-out: IC50 in cell proliferation assay, cell line SU-DHL-6): 47 nM | IC50 (134 cancer cell lines; Homo sapiens, SUP-T1, read-out: IC50 in cell proliferation assay, cell line SUP-T1): > 31600 nM | IC50 (134 cancer cell lines; Homo sapiens, SW48, read-out: IC50 in cell proliferation assay, cell line SW48 (EGFR p.G719S)): 14 nM | IC50 (134 cancer cell lines; Homo sapiens, SW480, read-out: IC50 in cell proliferation assay, cell line SW480): 739 nM | IC50 (134 cancer cell lines; Homo sapiens, SW626, read-out: IC50 in cell proliferation assay, cell line SW626): 32 nM | IC50 (134 cancer cell lines; Homo sapiens, SW780, read-out: IC50 in cell proliferation assay, cell line SW780 (FGFR3-BAIAP2L1)): 272 nM | IC50 (134 cancer cell lines; Homo sapiens, SW837, read-out: IC50 in cell proliferation assay, cell line SW837): 110 nM | IC50 (134 cancer cell lines; Homo sapiens, SW872, read-out: IC50 in cell proliferation assay, cell line SW872 (BRAF p.V600E)): 34 nM | IC50 (134 cancer cell lines; Homo sapiens, SW900, read-out: IC50 in cell proliferation assay, cell line SW900): 77 nM | IC50 (134 cancer cell lines; Homo sapiens, SW948, read-out: IC50 in cell proliferation assay, cell line SW948): 82 nM | IC50 (134 cancer cell lines; Homo sapiens, SW982, read-out: IC50 in cell proliferation assay, cell line SW982 (BRAF p.V600E)): 166 nM | IC50 (134 cancer cell lines; Homo sapiens, SW-620, read-out: IC50 in cell proliferation assay, cell line SW620): 18 nM | IC50 (134 cancer cell lines; Homo sapiens, T98G, read-out: IC50 in cell proliferation assay, cell line T98G): 11900 nM | IC50 (134 cancer cell lines; Homo sapiens, TCC-SUP, read-out: IC50 in cell proliferation assay, cell line TCCSUP): 363 nM | IC50 (134 cancer cell lines; Homo sapiens, THP-1, read-out: IC50 in cell proliferation assay, cell line THP-1): 17 nM | IC50 (134 cancer cell lines; Homo sapiens, U2OS, read-out: IC50 in cell proliferation assay, cell line U2OS): 4120 nM | IC50 (134 cancer cell lines; Homo sapiens, U-87 MG, read-out: IC50 in cell proliferation assay, cell line U-87MG ATCC): 8590 nM | IC50 (134 cancer cell lines; Homo sapiens, U-118-MG, read-out: IC50 in cell proliferation assay, cell line U-118MG): > 31600 nM | IC50 (134 cancer cell lines; Homo sapiens, UMUC3, read-out: IC50 in cell proliferation assay, cell line UM-UC-3): 124 nM | IC50 (134 cancer cell lines; Hs766T, read-out: IC50 in cell proliferation assay, Hs 766T cell line): 33 nM | IC50 (134 cancer cell lines; L-82, read-out: IC50 in cell proliferation assay, L-82 cell line (NPM1-ALK)): 1900 nM | IC50 (134 cancer cell lines; Rh30, read-out: IC50 in cell proliferation assay, cell line Rh30): > 31600 nM | IC50 (134 cancer cell lines; read-out: IC50 in cell proliferation assay, 11-18 cell line (EGFR p.L858R)): > 31600 nM | IC50 (134 cancer cell lines; read-out: IC50 in cell proliferation assay, Hs 852.T cell line): 271 nM | IC50 (134 cancer cell lines; read-out: IC50 in cell proliferation assay, JAR cell line): > 31600 nM | IC50 (134 cancer cell lines; read-out: IC50 in cell proliferation assay, cell line 5637): 139 nM | IC50 (134 cancer cell lines; read-out: IC50 in cell proliferation assay, cell line A-388): 696 nM | IC50 (134 cancer cell lines; read-out: IC50 in cell proliferation assay, cell line DB): > 31600 nM | IC50 (134 cancer cell lines; read-out: IC50 in cell proliferation assay, cell line DEL (NPM1-ALK)): > 31600 nM | IC50 (134 cancer cell lines; read-out: IC50 in cell proliferation assay, cell line ES-2 (BRAF p.V600E)): 188 nM | IC50 (134 cancer cell lines; read-out: IC50 in cell proliferation assay, cell line PA-1): 1350 nM | IC50 (134 cancer cell lines; read-out: IC50 in cell proliferation assay, cell line PC-3): > 31600 nM | IC50 (134 cancer cell lines; read-out: IC50 in cell proliferation assay, cell line RD): 40 nM | IC50 (134 cancer cell lines; read-out: IC50 in cell proliferation assay, cell line RKO (BRAF p.V600E)): 29 nM | IC50 (134 cancer cell lines; read-out: IC50 in cell proliferation assay, cell line RL): > 31600 nM | IC50 (134 cancer cell lines; read-out: IC50 in cell proliferation assay, cell line RT-4 (FGFR3-TACC3)): 19000 nM | IC50 (134 cancer cell lines; read-out: IC50 in cell proliferation assay, cell line SR (NPM1-ALK)): 4030 nM | IC50 (134 cancer cell lines; read-out: IC50 in cell proliferation assay, cell line T24): 60 nM | IC50 (134 cancer cell lines; read-out: IC50 in cell proliferation assay, cell line TT (RET p.C634W)): 1750 nM | IC50 (134 cancer cell lines; read-out: IC50 in cell proliferation assay, cell line VA-ES-BJ): 8280 nM
Structure (SMILES): Cn1cnc2c(F)c(Nc3ccc(Br)cc3F)c(C(=O)NOCCO)cc21 [binimetinib]
IC50 (AP-1060 (ETV6-NTRK3)): 18800 nM
